We go through one compound from ChEMBL document CHEMBL5154689, “Discovery of novel β-carboline derivatives as selective AChE inhibitors with GSK-3β inhibitory property for the treatment of Alzheimer's disease” (Eur J Med Chem, 2022).

In one series the test system is HepG2. Briefly: Cytotoxicity against human HepG2 cells assessed as reduction in cell viability at 1 to 20 uM incubated for 48 hrs by MTT assay. The format is toxicity, cell-based. The note with it: hepg2, 48 h, dose 1-20 µM. (In general: Tetrazolium assays rely on reduction of a dye to a coloured formazan, in cell work by metabolically active cells.)
The target of series [1] is T1, Glycogen synthase kinase-3 beta (Homo sapiens, UniProt P49841). Briefly: Inhibition of GSK3-beta (unknown origin) incubated for 60 mins by ATP-Glo luminescent assay.
Target sequence in this assay (P49841 whole entry): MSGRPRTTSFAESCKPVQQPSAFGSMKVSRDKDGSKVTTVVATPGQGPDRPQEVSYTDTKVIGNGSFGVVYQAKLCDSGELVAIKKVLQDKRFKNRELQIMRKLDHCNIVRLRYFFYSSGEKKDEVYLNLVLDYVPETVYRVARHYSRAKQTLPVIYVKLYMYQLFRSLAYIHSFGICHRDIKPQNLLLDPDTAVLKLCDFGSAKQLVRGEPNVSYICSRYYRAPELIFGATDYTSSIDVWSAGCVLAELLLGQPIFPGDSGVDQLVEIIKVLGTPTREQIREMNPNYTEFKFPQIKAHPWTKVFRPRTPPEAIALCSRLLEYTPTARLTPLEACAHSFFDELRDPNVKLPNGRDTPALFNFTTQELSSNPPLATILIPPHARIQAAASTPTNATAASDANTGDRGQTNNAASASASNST
The target in series [2] is T1, Glycogen synthase kinase-3 beta. Nature of the series: Inhibition of GSK3-beta in human HEK293T cells harboring tau P301L mutant assessed as reduction of NFT production measured after 24 hrs by fluorescence staining based analysis. Particulars: dose 2.5-10 µM, DDE = dose-dependent effect. The format is cell-based.
Target sequence in this assay (P49841 whole entry, looked up): as the sequence (P49841 whole entry) above
Another series deals with Acetylcholinesterase (Electrophorus electricus, UniProt O42275). Briefly: Inhibition of electric eel AChE using acetylthiocholine iodide as substrate preincubated with enzyme for 20 mins followed by substrate addition and measured after 20 mins by Ellman's method. In general terms: Ellman's reagent forms a yellow product with free thiols.
The target in series [3] is Dual specificity tyrosine-phosphorylation-regulated kinase 1B (Homo sapiens) (UniProt Q9Y463). Briefly: Inhibition of DYRK1B (unknown origin) at 0.5 to 1 uM. Particulars: dose 0.5-1 µM.
The target of a further series is Cholinesterase (Equus caballus, UniProt P81908). Briefly: Inhibition of equine serum BChE using butyrylthiocholine iodide as substrate preincubated with enzyme for 20 mins followed by substrate addition and measured after 20 mins by Ellman's method. It counts as cell-free.
Series [4] deals with T1, Glycogen synthase kinase-3 beta. Briefly: Inhibition of GSK3-beta (unknown origin) at 10 uM incubated for 60 mins by ATP-Glo luminescent assay.
Target sequence in this assay (P49841 whole entry, looked up): as the sequence (P49841 whole entry) above
For series [5], the target named is Dual specificity tyrosine-phosphorylation-regulated kinase 1A (Homo sapiens) (UniProt Q13627). Nature of the series: Inhibition of DYRK1A (unknown origin) at 0.5 to 1 uM. Particulars: dose 0.5-1 µM.
The next series deals with SH-SY5Y. Nature of the series: Cytotoxicity against human SH-SY5Y cells assessed as reduction in cell viability at 1 to 20 uM incubated for 48 hrs by MTT assay. The format is toxicity, cell-based. The note with it: dose 1-20 µM.
The target of series [6] is T1, Glycogen synthase kinase-3 beta. Nature of the series: Inhibition of GSK3-beta in human HEK293T cells harboring tau P301L mutant assessed as inhibition of tau hyperphosphorylation at Ser396 residue measured after 48 hrs by western blot analysis. Particulars: dose 2.5-10 µM, DDE = dose-dependent effect. The format is cell-based. In general terms: In western blotting, separated proteins are transferred to a membrane and probed.
Target sequence in this assay (P49841 whole entry, looked up): as the sequence (P49841 whole entry) above

The subject of the next series is HEK-293T. Nature of the series: Cytotoxicity against human HEK-293T cells assessed as reduction in cell viability at 1 to 20 uM incubated for 48 hrs by MTT assay. The format is toxicity, cell-based. Particulars: dose 1-20 µM.
In series [7] the target is Acetylcholinesterase (Electrophorus electricus) (UniProt O42275). Nature of the series: Potency index, ratio of harmine IC50 to test compound IC50 for electric eel AChE.
The subject of another series is L02. Nature of the series: Cytotoxicity against human HL7702 cells assessed as reduction in cell viability at 1 to 20 uM incubated for 48 hrs by MTT assay. The format is toxicity, cell-based. Particulars: l02, 48 h, dose 1-20 µM.
The target of series [8] is Cholinesterase (Equus caballus) (UniProt P81908). Nature of the series: Inhibition of equine serum BChE at 50 uM using butyrylthiocholine iodide as substrate preincubated with enzyme for 20 mins followed by substrate addition and measured after 20 mins by Ellman's method. The note with it: time 40.0 min. The format is cell-free.
Series [9] in a line: Acute toxicity in C57BL/6 mouse assessed as effect on body weight at 1000 to 1500 mg/kg measured after 14 days. It counts as organism-based. Particulars: in vivo, 336 h, dose 1000-1500 mg/kg, time 14 day.
Series [10] deals with Glycogen synthase kinase-3 alpha (Homo sapiens) (UniProt P49840). Briefly: Inhibition of GSK3-alpha (unknown origin) at 0.5 to 1 uM. The note with it: dose 0.5-1 µM.
For series [11], the target named is T1, Glycogen synthase kinase-3 beta. Nature of the series: Inhibition of GSK3-beta in human HEK293T cells harboring tau P301L mutant assessed as increase in GSK3-beta phosphorylation at Ser9 residue measured after 48 hrs by western blot analysis. The format is cell-based. The note with it: dose 2.5-10 µM, DDE = dose-dependent effect.
Target sequence in this assay (P49841 whole entry, looked up): as the sequence (P49841 whole entry) above
Series [12] can be described thus: Selectivity index, ratio of IC50 for equine serum BChE to IC50 for electric eel AChE.

Activity calls are given as the source filed them. The rule behind the calls is not given here.

Sequence of Acetylcholinesterase (O42275 whole entry): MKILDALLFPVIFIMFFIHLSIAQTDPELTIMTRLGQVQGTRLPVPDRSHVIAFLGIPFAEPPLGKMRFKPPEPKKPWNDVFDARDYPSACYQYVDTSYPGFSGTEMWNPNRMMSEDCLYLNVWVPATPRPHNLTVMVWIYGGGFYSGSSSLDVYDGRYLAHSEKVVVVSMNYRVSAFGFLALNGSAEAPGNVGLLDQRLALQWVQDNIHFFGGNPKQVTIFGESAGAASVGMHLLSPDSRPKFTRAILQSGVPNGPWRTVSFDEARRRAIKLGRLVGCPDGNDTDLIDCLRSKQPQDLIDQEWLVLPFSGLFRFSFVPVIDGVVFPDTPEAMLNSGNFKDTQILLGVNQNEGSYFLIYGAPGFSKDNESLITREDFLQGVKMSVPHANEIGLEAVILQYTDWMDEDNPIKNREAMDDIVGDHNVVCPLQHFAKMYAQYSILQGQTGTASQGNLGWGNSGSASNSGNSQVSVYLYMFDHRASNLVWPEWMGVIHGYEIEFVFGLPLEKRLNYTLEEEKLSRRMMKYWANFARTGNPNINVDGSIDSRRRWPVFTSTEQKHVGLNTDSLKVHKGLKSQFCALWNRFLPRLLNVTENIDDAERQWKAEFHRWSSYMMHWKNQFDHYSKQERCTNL
Sequence of Acetylcholinesterase (Electrophorus electricus) (O42275 24-633 limits assumed): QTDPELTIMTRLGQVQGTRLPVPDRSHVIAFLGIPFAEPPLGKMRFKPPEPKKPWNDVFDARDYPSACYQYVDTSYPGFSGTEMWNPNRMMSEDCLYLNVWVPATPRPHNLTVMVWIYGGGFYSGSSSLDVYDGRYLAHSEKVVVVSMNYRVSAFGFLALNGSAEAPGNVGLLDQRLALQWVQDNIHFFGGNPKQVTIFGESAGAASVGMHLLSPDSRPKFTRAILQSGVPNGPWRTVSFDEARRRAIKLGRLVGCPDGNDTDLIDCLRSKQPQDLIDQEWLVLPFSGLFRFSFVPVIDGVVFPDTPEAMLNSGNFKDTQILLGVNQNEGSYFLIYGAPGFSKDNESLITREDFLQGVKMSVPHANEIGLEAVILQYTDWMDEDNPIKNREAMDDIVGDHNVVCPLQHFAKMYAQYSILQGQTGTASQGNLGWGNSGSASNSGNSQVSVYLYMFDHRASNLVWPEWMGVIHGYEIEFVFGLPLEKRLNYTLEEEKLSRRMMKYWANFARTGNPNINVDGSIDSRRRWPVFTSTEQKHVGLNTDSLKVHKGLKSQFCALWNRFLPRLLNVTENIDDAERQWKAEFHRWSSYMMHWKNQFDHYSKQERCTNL
Sequence of Cholinesterase (P81908 whole entry): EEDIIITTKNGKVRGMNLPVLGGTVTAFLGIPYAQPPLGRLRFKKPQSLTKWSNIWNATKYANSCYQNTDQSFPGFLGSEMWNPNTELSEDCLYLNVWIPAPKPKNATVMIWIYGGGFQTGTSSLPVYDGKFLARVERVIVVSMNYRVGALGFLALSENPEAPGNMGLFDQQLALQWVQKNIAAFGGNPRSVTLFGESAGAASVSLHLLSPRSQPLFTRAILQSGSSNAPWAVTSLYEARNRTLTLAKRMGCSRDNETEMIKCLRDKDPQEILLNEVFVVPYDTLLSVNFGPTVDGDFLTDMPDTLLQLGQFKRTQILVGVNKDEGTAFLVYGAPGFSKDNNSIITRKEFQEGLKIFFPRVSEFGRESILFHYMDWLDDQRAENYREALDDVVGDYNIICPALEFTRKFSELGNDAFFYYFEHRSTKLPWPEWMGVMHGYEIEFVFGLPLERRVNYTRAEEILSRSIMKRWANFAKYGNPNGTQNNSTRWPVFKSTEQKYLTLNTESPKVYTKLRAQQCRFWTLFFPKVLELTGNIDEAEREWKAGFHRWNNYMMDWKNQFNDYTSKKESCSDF
Sequence of Cholinesterase (Equus caballus) (P81908 whole entry): as above
Sequence of Glycogen synthase kinase-3 alpha (Homo sapiens) (P49840 2-483 limits assumed): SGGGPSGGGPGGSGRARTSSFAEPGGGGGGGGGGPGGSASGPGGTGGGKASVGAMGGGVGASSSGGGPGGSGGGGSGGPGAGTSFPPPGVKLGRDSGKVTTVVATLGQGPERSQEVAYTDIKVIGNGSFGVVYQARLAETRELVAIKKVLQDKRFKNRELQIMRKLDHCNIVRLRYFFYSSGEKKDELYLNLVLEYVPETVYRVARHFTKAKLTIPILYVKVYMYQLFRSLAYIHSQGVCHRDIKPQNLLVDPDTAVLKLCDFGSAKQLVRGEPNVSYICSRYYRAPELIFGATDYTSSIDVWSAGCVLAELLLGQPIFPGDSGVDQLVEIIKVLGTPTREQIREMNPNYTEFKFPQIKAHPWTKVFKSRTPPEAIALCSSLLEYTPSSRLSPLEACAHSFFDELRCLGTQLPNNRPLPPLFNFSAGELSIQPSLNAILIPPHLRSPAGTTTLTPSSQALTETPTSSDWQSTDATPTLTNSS
Sequence of Dual specificity tyrosine-phosphorylation-regulated kinase 1B (Homo sapiens) (Q9Y463 whole entry, looked up): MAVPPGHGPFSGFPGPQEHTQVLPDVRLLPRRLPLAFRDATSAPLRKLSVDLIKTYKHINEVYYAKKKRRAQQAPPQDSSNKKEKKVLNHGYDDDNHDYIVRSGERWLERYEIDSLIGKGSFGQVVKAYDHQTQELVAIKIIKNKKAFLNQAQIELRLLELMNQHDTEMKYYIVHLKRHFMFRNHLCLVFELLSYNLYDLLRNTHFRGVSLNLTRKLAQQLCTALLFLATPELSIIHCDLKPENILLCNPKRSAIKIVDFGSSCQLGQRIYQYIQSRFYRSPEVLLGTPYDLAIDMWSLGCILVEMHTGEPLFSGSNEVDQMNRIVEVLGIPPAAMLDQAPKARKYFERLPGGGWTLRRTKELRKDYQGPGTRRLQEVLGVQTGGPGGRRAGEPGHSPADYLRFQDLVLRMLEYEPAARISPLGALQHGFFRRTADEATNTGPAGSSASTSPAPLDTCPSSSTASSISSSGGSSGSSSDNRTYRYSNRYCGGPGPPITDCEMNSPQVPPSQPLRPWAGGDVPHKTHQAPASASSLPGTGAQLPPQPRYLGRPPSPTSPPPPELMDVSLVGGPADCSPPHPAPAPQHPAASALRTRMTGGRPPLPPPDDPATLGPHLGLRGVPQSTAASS

On to `O=C(NCCC1CCN(Cc2ccccc2F)CC1)c1ccc2c(c1)[nH]c1c(NC(=O)C3CC3)nccc12`, for which the Activity result (in the series with HepG2; with SH-SY5Y; in the series with HEK-293T; with L02; in [9]) was “Non-Toxic” each time. Moreover, the IC50 in [1] was determined as 6.78 µM; against Acetylcholinesterase, 0.27 µM; against Cholinesterase, 20.8 µM. The inhibition result in series [2] is “Dde”; in [4] it was 60.8%; in [6], “Dde”; in series [8] it was 63%; in [11] it was “Dde”. Further, the inhibition result in [3], in series [5] and in series [10] was “Active” in each case. The Ratio IC50 is 37 in series [7] and 77.1 in [12].

Broadly, the IC50 is the point on the concentration scale where inhibition reaches its midpoint. A word on the inhibition: it is the drop in the measured response relative to a control, in per cent.
